Data taken from patent publication US20160355782A1, “METHOD FOR ENHANCING DIFFERENTIATION OF DOPAMINERGIC NEURONS” (Buddhist Tzu Chi Medical Foundation, priority 2015, published 2016).

Tested on: midbrain explants
Assay: Midbrain explant cultures, TH+ cell numbers
Type: cell-based, rat
Details: without exogenous UCN
Method: Midbrain explants were dissected from E13.5 embryos by the method known by a person skilled in the art, for example as the protocol described by Baizabal and Covarrubias (2009) and performed with some modifications.
The dorsal midline of the explants was cut and the tissue was placed on porous (0.4 μm) transparent membrane inserts (25-mm in diameter, Nunc, Roskilde, Denmark) with the ventricular surface facing up. Inserts were then placed into six-well culture plates. Each well contained 1.5 mL of MEM medium supplemented with 10% FBS, 100 U/mL penicillin, and 100 μg/mL streptomycin. Explants were incubated at 37° C. with 5% CO2 for 4 hours, after which the explants were incubated in a serum-free DMEM/F12/N2 medium with or without UCN for 3 days. Midbrain explants were then fixed with 4% paraformaldehyde and immuno-histochemical analysis was performed.

[1] = CP-376395 in combination with astressin 2B

Row | Molecule | TH+ cell numbers in the VM of midbrain explants [1] | TH+ cell numbers in the VM of midbrain explants (astressin)
1 | CCC(CC)Nc1cc(C)nc(Oc2c(C)cc(C)cc2C)c1C [CP-376395] | reduce | –
2 | astressin | – | reduce
3 | astressin 2B | reduce | –
